Data on 15 molecules can be found in patent publication US20210179578A1, “OX1 ANTAGONISTS” (Heptares Therapeutics Limited, priority 2017, published 2021).

The target of test [1] is T1, human OX1 receptor (Homo sapiens, UniProt O43613).
T1 sequence (O43613 1-425): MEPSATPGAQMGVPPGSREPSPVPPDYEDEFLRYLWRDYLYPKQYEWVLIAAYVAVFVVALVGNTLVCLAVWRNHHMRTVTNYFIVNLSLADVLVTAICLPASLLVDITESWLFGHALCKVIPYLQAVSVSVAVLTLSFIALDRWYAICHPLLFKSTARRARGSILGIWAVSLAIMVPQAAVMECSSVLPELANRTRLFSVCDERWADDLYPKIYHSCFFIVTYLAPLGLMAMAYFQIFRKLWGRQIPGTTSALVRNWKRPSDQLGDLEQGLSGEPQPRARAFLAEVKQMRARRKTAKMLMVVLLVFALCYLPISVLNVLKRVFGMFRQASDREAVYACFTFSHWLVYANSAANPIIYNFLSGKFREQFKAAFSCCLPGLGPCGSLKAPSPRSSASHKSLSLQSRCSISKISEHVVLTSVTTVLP
Description: IPone accumulation assay, CHO cells expressing OX1 (antagonism of orexin A). The class given is cell-based. The following applies: CHO human OX1, orexin A EC80 challenge (~20 nM). As to the method:
Generation of CHO stable cell lines expressing the human OX1R and OX2R. Stable cell lines for the human OX1R and OX2R receptors were generated through the transfection of CHO cells using the transfection reagent Genejuice (Novagen number 70967) and cDNA coding for either the human OX1R or OX2R. Cells were cultured in Sigma Nutrient Mixture F-12 Ham media (catalog number N6658) supplemented with 10% heat-inactivated FBS. Forty-eight hours after transfection, cells were harvested and placed under geneticin selection by culturing in Sigma Nutrient Mixture F-12 Ham media supplemented with 10% heat-inactivated FBS and geneticin (ThermoFisher Catalog number: 10131035). Selection of the final stable clone for each receptor was made on the basis of receptor expression, assay signal to noise and robustness though increasing passage. Selected clones for the human OX1R and OX2R were then frozen down into liquid nitrogen using Cell Freezing Medium-DMSO (Sigma-Aldrich catalog number: C6164). IPone accumulation assay. A CHO cell line stably expressing either human OX1 or OX2 receptor was used with the IPone HTRF assay kit (CisBio: Part #62[…]) to measure receptor activation. The assay was optimised to measure the ability (potency; fpKb) of antagonists to reduce agonist (orexin A)-induced inositol phosphate turnover. Briefly, cells were plated onto half area 96-well white walled plates at a density of 12,500 cells/well. Sixteen hours post-plating cell growth media was replaced with antagonist concentration-response curve diluted in stimulation buffer (supplied with the kit). Cells were incubated in a humidified incubator (37° C.) for 30 min before an EC80 challenge concentration ( 20 nM (OX1) and 40 nM (OX2)) of orexin A (Tocris catalogue number 1455). After 30 min stimulation in a humidified incubator (37° C.) the assay was terminated by the addition of detection mixture as per manufacturer's instructions. The concentration of compound which reduced orexin-A stimulated turnover of inositol phosphates by 50% (IC50) was calculated by fitting to a four parameter sigmoidal dose response curve. The IC50 values were converted to fpKB values using the orexin A pEC50 value estimated on each plate as well as the challenge concentration interpolated from the orexin A control curve.

The target in test [2] is T2, human OX2 receptor (Homo sapiens, UniProt O43614).
T2 sequence (O43614 1-444): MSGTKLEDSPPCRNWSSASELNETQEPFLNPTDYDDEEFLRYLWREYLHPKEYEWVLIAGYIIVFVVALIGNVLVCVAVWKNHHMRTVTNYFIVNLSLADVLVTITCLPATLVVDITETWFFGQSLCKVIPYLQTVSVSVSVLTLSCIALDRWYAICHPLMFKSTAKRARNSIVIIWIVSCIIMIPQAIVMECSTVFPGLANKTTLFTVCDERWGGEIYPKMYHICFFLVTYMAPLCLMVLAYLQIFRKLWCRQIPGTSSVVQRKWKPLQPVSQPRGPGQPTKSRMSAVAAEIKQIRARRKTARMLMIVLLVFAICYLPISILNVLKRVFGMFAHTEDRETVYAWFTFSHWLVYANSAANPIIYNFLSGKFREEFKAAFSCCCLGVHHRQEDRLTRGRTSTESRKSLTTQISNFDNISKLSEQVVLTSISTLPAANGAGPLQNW
In words: IPone accumulation assay, CHO cells expressing OX2 (antagonism of orexin A). The class given is cell-based. The following applies: CHO human OX2, orexin A EC80 challenge (40 nM), read-out: fpKb average OX2 (converted). As to the method:
Generation of CHO stable cell lines expressing the human OX1R and OX2R. Stable cell lines for the human OX1R and OX2R receptors were generated through the transfection of CHO cells using the transfection reagent Genejuice (Novagen number 70967) and cDNA coding for either the human OX1R or OX2R. Cells were cultured in Sigma Nutrient Mixture F-12 Ham media (catalog number N6658) supplemented with 10% heat-inactivated FBS. Forty-eight hours after transfection, cells were harvested and placed under geneticin selection by culturing in Sigma Nutrient Mixture F-12 Ham media supplemented with 10% heat-inactivated FBS and geneticin (ThermoFisher Catalog number: 10131035). Selection of the final stable clone for each receptor was made on the basis of receptor expression, assay signal to noise and robustness though increasing passage. Selected clones for the human OX1R and OX2R were then frozen down into liquid nitrogen using Cell Freezing Medium-DMSO (Sigma-Aldrich catalog number: C6164).
IPone accumulation assay. A CHO cell line stably expressing either human OX1 or OX2 receptor was used with the IPone HTRF assay kit (CisBio: Part #62IPAPEJ) to measure receptor activation. The assay was optimised to measure the ability (potency; fpKb) of antagonists to reduce agonist (orexin A)-induced inositol phosphate turnover. Briefly, cells were plated onto half area 96-well white walled plates at a density of 12,500 cells/well. Sixteen hours post-plating cell growth media was replaced with antagonist concentration-response curve diluted in stimulation buffer (supplied with the kit). Cells were incubated in a humidified incubator (37° C.) for 30 min before an EC80 challenge concentration (˜20 nM (OX1) and 40 nM (OX2)) of orexin A (Tocris catalogue number 1455). After 30 min stimulation in a humidified incubator (37° C.) the assay was terminated by the addition of detection mixture as per manufacturer's instructions. The concentration of compound which reduced orexin-A stimulated turnover of inositol phosphates by 50% (IC50) was calculated by fitting to a four parameter sigmoidal dose response curve. The IC50 values were converted to fpKB values using the orexin A pEC50 value estimated on each plate as well as the challenge concentration interpolated from the orexin A control curve.

The mark [3] stands for this setting: IPone accumulation, read-out: fpKb average OX1 (converted).

SMILES strings stand for the structures. Like-named read-outs stand apart in the source and are kept apart here.

On to `[2H]C([2H])([2H])Oc1cc(F)c(CN2C(=O)N(c3cnc(OC)c(C(C)(F)F)c3)CCc3c(F)cccc32)c(F)c1` [Example 6, 3-[5-(1,1-difluoroethyl)-6-methoxypyridin-3-yl]-1-{2,6-difluoro-4-[(^2H3)methyloxy]benzyl}-6-fluoro-1,3,4,5-tetrahydro-2H-1,3-benzodiazepin-2-one], for which the Kb is 10 nM in test [1] (setting [3]) and 398 nM in test [2].
The matching figures for `COCc1cc(F)c(CN2C(=O)N(c3cnc(OC)c(C(C)(F)F)c3)CCc3c(F)cccc32)c(F)c1` [Example 7, 3-[5-(1,1-difluoroethyl)-6-methoxypyridin-3-yl]-1-[2,6-difluoro-4-(methoxymethyl)benzyl]-6-fluoro-1,3,4,5-tetrahydro-2H-1,3-benzodiazepin-2-one]: 7.94 nM and over 3980 nM.
For `COc1cc(F)c(CN2C(=O)N(c3cnc(OC)c(C(C)(F)F)c3)CCc3c(F)cccc32)c(F)c1` [Example 8, 3-[5-(1,1-difluoroethyl)-6-methoxypyridin-3-yl]-1-(2,6-difluoro-4-methoxybenzyl)-6-fluoro-1,3,4,5-tetrahydro-2H-1,3-benzodiazepin-2-one], the Kb was 3.16 nM in test [1] (setting [3]) and over 316 nM in test [2].
On to `COc1ncc(N2CCc3c(F)cccc3N(Cc3c(F)cc(Cl)cc3F)C2=O)cc1C(C)(F)F` [Example 9, 1-(4-chloro-2,6-difluorobenzyl)-3-[5-(1,1-difluoroethyl)-6-methoxypyridin-3-yl]-6-fluoro-1,3,4,5-tetrahydro-2H-1,3-benzodiazepin-2-one], for which the Kb is 25.1 nM in test [1] (setting [3]) and over 3160 nM in test [2].
As for `COc1ncc(N2CCc3c(F)cccc3N(Cc3ccc(Br)cc3F)C2=O)cc1C(C)(F)F` [Example 10, 1-(4-bromo-2-fluorobenzyl)-3-[5-(1,1-difluoroethyl)-6-methoxypyridin-3-yl]-6-fluoro-1,3,4,5-tetrahydro-2H-1,3-benzodiazepin-2-one], the Kb in test [1] (setting [3]) was 25.1 nM; in test [2], over 2510 nM.
In the same order, the values of `COc1ncc(N2CCc3c(F)cccc3N(Cc3c(F)cc(Br)cc3F)C2=O)cc1S(C)(=O)=O` [Example 14, 1-(4-bromo-2,6-difluorobenzyl)-6-fluoro-3-[6-methoxy-5-(methylsulfonyl)pyridin-3-yl]-1,3,4,5-tetrahydro-2H-1,3-benzodiazepin-2-one] are 79.4 nM and over 794 nM.
Take `COc1cc(F)c(CN2C(=O)N(c3cnc(OC)c(S(C)(=O)=O)c3)CCc3c(F)cccc32)c(F)c1F` [Example 15, 6-fluoro-3-[6-methoxy-5-(methylsulfonyl)pyridin-3-yl]-1-(2,3,6-trifluoro-4-methoxybenzyl)-1,3,4,5-tetrahydro-2H-1,3-benzodiazepin-2-one]: the Kb in test [1] (setting [3]) is 126 nM; in test [2], over 3160 nM.
As for `COc1cc(F)c(CN2C(=O)N(c3cnc(OC)c(S(C)(=O)=O)c3)CCc3c(F)cccc32)c(F)c1` [Example 16, 1-(2,6-difluoro-4-methoxybenzyl)-6-fluoro-3-[6-methoxy-5-(methylsulfonyl)pyridin-3-yl]-1,3,4,5-tetrahydro-2H-1,3-benzodiazepin-2-one], the Kb in test [1] (setting [3]) was 15.8 nM; in test [2], over 3980 nM.
On to `COc1ncc(N2CCc3c(F)cccc3N(Cc3c(C)cc(Br)cc3F)C2=O)cc1S(C)(=O)=O` [Example 17, 1-(4-bromo-2-fluoro-6-methylbenzyl)-6-fluoro-3-[6-methoxy-5-(methylsulfonyl)pyridin-3-yl]-1,3,4,5-tetrahydro-2H-1,3-benzodiazepin-2-one], for which the figures for the Kb in test [1] (setting [3]) and in test [2] were 10 nM and over 2510 nM, respectively.
In the same order, the values of `COc1ncc(N2CCc3c(F)cccc3N(Cc3c(C)cc(F)cc3F)C2=O)cc1S(C)(=O)=O` [Example 18, 1-(2,4-difluoro-6-methylbenzyl)-6-fluoro-3-[6-methoxy-5-(methylsulfonyl)pyridin-3-yl]-1,3,4,5-tetrahydro-2H-1,3-benzodiazepin-2-one] are 10 nM and over 3160 nM.
The matching figures for `COc1nc(OC)c(C(C)(F)F)cc1N1CCc2c(F)cccc2N(Cc2c(F)cc(Br)cc2F)C1=O` [Example 23, 1-(4-bromo-2,6-difluorobenzyl)-3-[5-(1,1-difluoroethyl)-2,6-dimethoxypyridin-3-yl]-6-fluoro-1,3,4,5-tetrahydro-2H-1,3-benzodiazepin-2-one]: 50.1 nM and over 1580 nM.
The matching figures for `COCc1cc(F)c(CN2C(=O)N(c3cc(C(C)(F)F)c(OC)nc3OC)CCc3c(F)cccc32)c(F)c1` [Example 24, 3-[5-(1,1-difluoroethyl)-2,6-dimethoxypyridin-3-yl]-1-[2,6-difluoro-4-(methoxymethyl)benzyl]-6-fluoro-1,3,4,5-tetrahydro-2H-1,3-benzodiazepin-2-one]: 63.1 nM and over 3160 nM.
For the molecule `COc1cc(F)c(CN2C(=O)N(c3cc(S(C)(=O)=O)c(OC)nc3OC)CCc3c(F)cccc32)c(F)c1` [Example 25, 1-(2,6-difluoro-4-methoxybenzyl)-3-[2,6-dimethoxy-5-(methylsulfonyl)pyridin-3-yl]-6-fluoro-1,3,4,5-tetrahydro-2H-1,3-benzodiazepin-2-one], the Kb is 10 nM in test [1] (setting [3]) and over 3980 nM in test [2].
For the molecule `CSc1cc(N2CCc3c(F)cccc3N(Cc3c(F)cc(Br)cc3F)C2=O)ccc1C` [Example 26, 1-(4-bromo-2,6-difluorobenzyl)-6-fluoro-3-[4-methyl-3-(methylsulfanyl)phenyl]-1,3,4,5-tetrahydro-2H-1,3-benzodiazepin-2-one], the Kb in test [1] (fpKb average OX1, IPone accumulation) is 50.1 nM; in test [2], over 794 nM.
With `Cc1ccc(N2CCc3c(F)cccc3N(Cc3c(F)cc(Br)cc3F)C2=O)cc1S(C)(=O)=O` [Example 27, 1-(4-bromo-2,6-difluorobenzyl)-6-fluoro-3-[4-methyl-3-(methylsulfonyl)phenyl]-1,3,4,5-tetrahydro-2H-1,3-benzodiazepin-2-one], the results for the Kb in test [1] (setting [3]) and in test [2] were 126 nM and over 3160 nM, respectively.
